From patent US20210169837A1, “COMPOSITION FOR REDUCING NEW-ONSET DIABETES” (MOCHIDA PHARMACEUTICAL CO., LTD., priority 2012, published 2021)

Legend:
[1] = test system: aged people of at least 66 years old administered with statin; conditions: compared to the case of pravastatin; cited from earlier work
[2] = test system: Human fetal rhabdomyosarcoma cell line (RD cell, ATCC); assay: 2-3H-deoxyglucose uptake by differentiated skeletal muscle cells; type: cell-based; conditions: for Uptake of radioactivity (2-3H-deoxyglucose) per 1 μg of protein: statin = 30 μM simvastatin, EPA = 50 μM sodium eicosapentate
Protocol: (1) Human fetal rhabdomyosarcoma cell line (RD cell, ATCC) was inoculated in 24 well plate and cultured in a growth medium (10% fetal bovine serum (FCS), Dulbecco's modified Eagle medium (DMEM), low glucose, 1% nonessential amino acid) to confluency. (2) The cells were then cultivated in differentiation medium (2% horse serum (HS), Dulbecco's modified Eagle medium (DMEM), low glucose, 1% nonessential amino acid) for 3 to 5 days for differentiation into muscle cell.
(3) After the incubation, the medium was removed by aspiration, and the cells were incubated in an uptake buffer (140 mM NaCl, 5 mM KCl, 2.5 mM MgSO4, 20 mM HEPES, 1 mM CaCl2, pH=7.4) supplemented with 10 μM of 2-3H-deoxyglucose at 37° C. for 12 minutes. (4) After the incubation, the cells were washed 4 times with cold stop solution (PBS(−)supplemented with 10 mM glucose).
The PBS(−) contained 0.2 g of NaH2PO4.2H2O, 3.225 g of Na2HPO4.12H2O, and 8 g of NaCl in 1 L, and the pH was at 7.2 to 7.4.
(5) After the washing, 500 μL/well of aqueous solution of 0.4N sodium hydroxide was added, and the cells were lyzed by heating to 56° for 20 minutes. (6) 300 μL of the well content (cell lysate) was mixed with 4 mL of Atomlight (manufactured by PerkinElmer), and ^3H count was measured with a liquid scintillation counter. The well content (cell lysate) was also measured for its protein concentration to calculate the ^3H count per 1 μg of the protein.
FIG. 1 is the graph showing the uptake of radioactivity (y axis) in relation to the incubation time (x axis) for each group.

For CC(C)c1c(C(=O)Nc2ccccc2)c(-c2ccccc2)c(-c2ccc(F)cc2)n1CC[C@@H](O)C[C@@H](O)CC(=O)O [atorvastatin], the “risk of the incidence of the diabetes compared to pravastatin” value (from here on “risk … compared to pravastatin”) [1] is given as “significantly increased”.
In the case of CC[C@H](C)C(=O)O[C@H]1C[C@@H](C)C=C2C=C[C@H](C)[C@H](CC[C@@H]3C[C@@H](O)CC(=O)O3)[C@H]21 [lovastatin], the “risk … compared to pravastatin” value [1] is listed as “no significant difference”.
In the case of CC(C)c1nc(N(C)S(C)(=O)=O)nc(-c2ccc(F)cc2)c1/C=C/[C@@H](O)C[C@@H](O)CC(=O)O [rosuvastatin], the “risk … compared to pravastatin” value [1] is listed as “significantly increased”.
In the case of CCC(C)(C)C(=O)O[C@H]1C[C@@H](C)C=C2C=C[C@H](C)[C@H](CC[C@@H]3C[C@@H](O)CC(=O)O3)[C@H]21 [Statin, simvastatin], the “rate of decrease of radioactivity uptake” value ([2]; 48 hr of incubation, vs control group, 30 μM simvastatin (with or without 50 μM EPA)) is reported as “about 73%”, the “Uptake of radioactivity (2-3H-deoxyglucose) per 1 μg of protein” value (“Uptake … per 1 μg of protein” for short) ([2]; incubation time 1 hr) is reported as 563 dpm/μg protein and the “Uptake … per 1 μg of protein” value ([2]; incubation time 6 hr) is reported as 489 dpm/μg protein. For the same molecule, the “Uptake … per 1 μg of protein” value ([2]; incubation time 24 hr) was 343 dpm/μg protein and the “Uptake … per 1 μg of protein” value ([2]; incubation time 48 hr) was 170 dpm/μg protein.
